In patent publication US20240287081A1, “PERFLUOROALKANE SUBSTITUTED PYRAZOLO[3,4-D]PYRIMIDIN AND PYRROLO[2,3-D]PYRIMIDIN COMPOUNDS AND USES THEREOF” (ICAHN SCHOOL OF MEDICINE AT MOUNT SINAI, priority 2021, published 2024):

Tests used:
[1] = Caco-2 permeability assay; type: in vitro ADME; conditions: human, 1 hour at 37° C., HBSS pH 7.4 both sides, read-out: influx/efflux ratio in Caco-2
Protocol: (§1) FIGS. 9A-9C show the physicochemical comparison of R^F and R^H Analogs. FIG. 9A is a graph of the MDCK and Caco-2 permeability assays for the indicated compounds. Compounds were assayed at 5 μM and transport (Papp, B-A and Papp, A-B, ×10^−6 cm/s) values were measured to determine influx over efflux ratios. […] There are differences in magnitude for bond and molecular dipoles, and R^F- and R^H-substituents have opposite charge profiles.
(§2) Caco-2 and MDCK permeability assays to assess transport in both directions, apical to basolateral (A-B) and basolateral to apical (B-A), across a cell monolayer were conducted at Quintara Discovery. The compounds were tested at a final concentration of 5 microM, with HBSS, pH 7.4 on apical side and HBSS, pH 7.4 on basolateral side. Transport was allowed to proceed for 1 hour at 37° C., with compound detection performed by LC-MS/MS. Assays were conducted twice. Papp, B-A and Papp, A-B, ×10^−6 cm/s values were determined at Quintara.

P-gp = experiment: MDCK permeability assay; type: in vitro ADME; conditions: dog, 1 hour at 37° C., HBSS pH 7.4 both sides, read-out: influx/efflux ratio in MDCK
Protocol: as §1, §2

[2] = cited from earlier work
[3] = molecular target: T1, wild-type RET kinase domain (Homo sapiens, UniProt P07949); experiment: Wild-type RET Kd, bead based competition assay (KINOMEscan, DiscoverX); type: binding; conditions: recombinant human wild-type RET kinase domain, average of two replicates; read-out: Kd towards wild-type RET
T1 construct: determined against recombinant-human, wild-type RET kinase domain; phage display fusion (kinase expressed on phage); purchased DiscoverX (Fremont, CA); host or cells: phage
T1 sequence (P07949 724-1016 limits assumed): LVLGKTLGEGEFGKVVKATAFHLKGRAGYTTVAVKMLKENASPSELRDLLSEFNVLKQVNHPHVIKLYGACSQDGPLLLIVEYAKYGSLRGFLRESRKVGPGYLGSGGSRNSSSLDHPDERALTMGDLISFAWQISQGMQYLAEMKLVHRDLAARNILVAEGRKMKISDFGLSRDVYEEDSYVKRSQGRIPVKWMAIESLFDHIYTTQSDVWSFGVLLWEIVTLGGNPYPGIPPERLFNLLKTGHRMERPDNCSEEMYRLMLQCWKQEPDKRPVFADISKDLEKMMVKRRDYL
Protocol: Wild-type RET Kd values were determined by DiscoverX (Fremont, CA) using a bead based competition assay (KINOMEscan). In brief, kinases are expressed on phage and immobilized on beads via active site-directed ligands. Test compounds are premixed with kinases and assayed for the ability to compete for immobilized ligands. Binding constants are calculated with a standard dose-response curve and the Hill equation, with Hill slope set to −1. […] Kd values are the average of two experimental replicates.
To assess if the differences in activity between R^F- and R^H-analogs were related to alterations in target engagement, representative analogs for binding on wild-type RET were compared. For this KD values of compounds 40 (para-C2F5) and 50 (para-C2H5) were determined against recombinant-human, wild-type RET kinase domain.

[4] = system: panel of 468 purified human kinases; experiment: In vitro kinase percent inhibition, panel of 468 kinases (DiscoverX); type: binding; conditions: 1 μM; for binding to wild-type RET and RET^M918T, in words: kinase panel
Protocol: Compounds were assayed against a panel of 468 purified human kinases (DiscoverX) to measure percentage inhibition values and derive kinome profiles (FIGS. 3B-3C). All compounds were screened at 1 μM, using two experimental replicates to determine percent inhibition values. Detailed procedures for kinase reactions and assay formats are described at http://www.discoverx.com. Raw data sets for individual compounds were filtered based on the variance of experimental replicates (cutoff=average variance+standard deviation).

ptc>dRet^M955T flies = experiment: Fly rescue assay (Drosophila MTC model ptc>dRet^M955T); type: in vivo; conditions: compound in fly food; for rescue (percent viability of adult flies, adults/pupae×100): 13 d at 25° C., baseline viability 0%
Protocol: Kinase-mutated fly stocks were obtained from Bloomington Drosophila Stock Center (BDSC; Bloomington, IN). The active mutant form of Drosophila Ret (dRet^955T) carries an M955T mutation corresponding to the M918T mutation commonly reported for multiple endocrine neoplasia (MEN) type 2B patients12,14,16,34. The ptc-gal4, UAS-GFP;UAS-dRet^M955T/SM5tub-gal80-TM6B transgenic flies were prepared according to standard protocols and crossed with non-transgenic w-flies (BDSC) to generate ptc-gal4, UAS-GFP; UAS-dRet^M955T(ptc>dRet^M955T) flies for chemical screening.
All drugs were synthesized in-house. All compounds were dissolved in DMSO (Sigma-Aldrich; St. Louis, MO) and mixed with semi-defined fly medium (BDSC) to make drug food (0.1% final DMSO concentration). For drug screening, ptc>dRet^M955T embryos were raised until adulthood on drug food for 13 d at 25° C. The number of empty pupal cases (i.e., adults) ? that of total pupal cases (P) to determine % viability. Fly randomization was used throughout the assays.
In this model, compounds are assessed based on their ability to suppress oncogenic Ret^M955T-induced tumors, which can be quantified as ‘rescue’ from lethality. […] The baseline viability of ptc>Ret^1955T flies was calibrated to zero, which creates a high bar for rescue but also reduces false-positive hits. Hundreds of flies are tested per condition (typical n values are […] administered through fly food.

human MTC cell line TT = conditions: previous work; cited from earlier work
AKSP CRC tumoroid line = experiment: 3D CRC tumoroid viability, AKSP model; type: cell-based, mice; conditions: at 5.0 μM, viability after 72 hours
Protocol: To model different stages of colorectal cancer (CRC), intestinal organoids were derived from genetically engineered mice with the following genotypes Apc^flx/flx (A) and Apc^flx/flx Kra^LSL-G12D Smad4^flx/flx (AKS) and transformed ex vivo by addition of 100 nM 4-OHT for 24 hours. Once the organoids acquired a spheroid morphology characteristic of CRC Tumoroids, trp53 was knocked out in AKS tumoroids using CRISPR-CAS9 technology to generate the AKSP line. CRC tumoroid lines as well as wild type intestinal organoids were seeded onto Matrigel in 96 well plates in triplicates 16 hours before being treated with the indicated compounds at a final concentration of 0.5 μM. 72 hours later, cell viability was assessed using Titerglo® assay. Results of 3D CRC organoid line data for pyrazolo- and pyrrolopyrimidine compounds at 0.5 μm were obtained (FIGS. 25A-G). […] In the AKSP model, at 5.0 μM, the top ten compounds were: APS-8-35-3, APS-8-35-4, APS-6-87, APS-9-3, AD80, APS-8-85-2, APS-8-51-3, APS-9-2, and APS-8-56-4.

[5] = system: HCC tumor organoids, BC (B-Catenin); experiment: 3D HCC tumor organoid viability, BC model; type: cell-based; conditions: 5.0 μM, viability three days post drug administration
Protocol: (§3) For assays in HCC tumor organoids, 96 well plates were first coated with a 50:50 solution of basal media:Matrigel ([…]), which polymerized for 15 minutes at 37° C. Tumor organoids were taken out of Matrigel, broken, and washed. Tumor organoids were seeded at 1,000 cells per well and were treated the following day with single doses of drugs in technical triplicate. Final DMSO concentrations were kept below 0.5%. Cell viability was measured three days post drug administration with either luminescence from CellTiter-Glo or absorbance at 560 and 590 nm from resazurin. Viability data was analyzed by normalizing individual drug-treated well values to DMSO-treated wells (BC=B-Catenin; SR=sorafenib resistant). Results of 3D HCC cell line data for pyrazolo- and pyrrolopyrimidine compounds at 0.5 μm (FIGS. 22A-F), 0.05 μm (FIGS. 23A-F), and 5.0 μm (FIGS. 24A-F) were obtained. […] In the BC model, at 5.0 μM, the top ten compounds were: APS-8-100-4, APS-8-52-3, APS-8-51-4, APS-7-25-2, APS-8-100-3, APS-8-51-3, APS-8-50-4, APS-8-52-4, and APS-7-38. In the SR model, at 5.0 μM, the top ten compounds were: APS-8-51-3, APS-8-50-4, APS-8-51-4, APS-8-52-3, APS-8-50-3, APS-7-52-2, APS-8-52-4, APS-7-52-1, and APS-8-100-4.

[6] = system: HCC tumor organoids, SR (sorafenib resistant); experiment: 3D HCC tumor organoid viability, SR model; type: cell-based; conditions: 5.0 μM, viability three days post drug administration
Protocol: as §3

CNC(=O)c1cc(Oc2ccc(NC(=O)Nc3ccc(Cl)c(C(F)(F)F)c3)cc2)ccn1 [Sorafenib, sorafenib]
efflux ratio at 1 h, 5 µM [1]: > 2
efflux ratio at 1 h, 5 µM (P-gp): < 2
protein-bound in blood plasma [2]: > 99%

CNC(=O)c1cc(Oc2ccc(NC(=O)Nc3ccc(C(F)(F)C(F)(F)C(F)(F)C(F)(F)F)cc3)c(F)c2)ccn1 [APS-8-52-2]
Kd [3]: 100 nM

CNC(=O)c1cc(Oc2ccc(NC(=O)Nc3ccc(C(F)(C(F)(F)F)C(F)(F)C(F)(F)F)cc3)c(F)c2)ccn1 (centres unmarked) [APS-8-82-1]
binding to wild-type RET and RET^M918T, in words [4]: selective for mutant RET^M918T
binding to wild-type RET and RET^M918T, in words ([4]; listed as 8-82-1): selectivity for the M918T mutant over wild-type
binding profile / selectivity across the kinome, in words ([4]; panel of 468 kinases): highly selective across the kinome
number of kinases bound with >80% efficacy ([4]; panel of 468 kinases): 7
rescue (percent viability of adult flies, adults/pupae×100) (ptc>dRet^M955T flies): 85%
Kd [3]: 110 nM

CNC(=O)c1cc(Oc2ccc(NC(=O)Nc3cc(C(F)(C(F)(F)F)C(F)(F)F)ccc3F)cc2)ccn1 [APS-6-45]
performance in mouse xenograft, in words (human MTC cell line TT): performed well
efflux ratio at 1 h, 5 µM [1]: > 2
efflux ratio at 1 h, 5 µM (P-gp): < 2
rescue (percent viability of adult flies, adults/pupae×100) (ptc>dRet^M955T flies): 84%

CC(C)n1nc(-c2ccc(NC(=O)Nc3ccc(C(F)(F)C(F)(F)C(F)(F)F)cc3)cc2)c2c(N)ncnc21 [APS-8-51-3, 1-(4-(4-Amino-1-isopropyl-1H-pyrazolo[3,4-d]pyrimidin-3-yl)phenyl)-3-(4-(perfluoropropyl)phenyl)urea]
ranking by inhibition of cell proliferation, AKSP model (AKSP CRC tumoroid line): top ten
ranking by inhibition of cell proliferation, BC model [5]: top ten
ranking by inhibition of cell proliferation, SR model [6]: top ten

CNC(=O)c1cc(Oc2ccc(NC(=O)Nc3ccc(C(F)(F)F)cc3)c(F)c2)ccn1 [APS-4-9-8]
binding to wild-type RET and RET^M918T, in words [4]: strong binding to wild-type and mutant RET^M918T
binding profile / selectivity across the kinome, in words ([4]; panel of 468 kinases): strong binding to a large group of kinases
binding profile / selectivity across the kinome, in words ([4]; panel of 468 kinases, listed as 4-9-8): low overall selectivity
rescue activity in the fly model, in words (ptc>dRet^M955T flies): no fly rescue
rescue (percent viability of adult flies, adults/pupae×100) (ptc>dRet^M955T flies): 0%
Kd [3]: 2.8 nM
